Activity calls are given as the source filed them. The rule behind the calls is not given here.
Experiments:
4T1 = assay: Induction of DNA damage in mouse 4T1 cells implanted in mouse assessed as decrease in PARP level at 50 mg/kg/day by Western blot analysis; assay type: functional, organism-based
[1] = Toxicity in male C57BL/6J mouse implanted with mouse B16-F10 cells assessed as histopathological damage in kidney at 50 mg/kg, IG treated for 14 days consecutively by H and E staining based analysis; assay type: organism-based; settings: in vivo, po, 336 h, time 14 day
[2] = Apparent volume of distribution in male Sprague-Dawley rat at 20 mg/kg, po measured for 0.083 to 12 hrs by LC-MS/MS analysis; assay type: ADME, organism-based; settings: in vivo, time 0.083-12 hrs
[3] = Clast in male Sprague-Dawley rat at 20 mg/kg, po measured for 0.083 to 12 hrs by LC-MS/MS analysis; assay type: ADME, organism-based; settings: in vivo, time 0.083-12 hrs
[4] = AUMC (0 to infinity) in male Sprague-Dawley rat at 2 mg/kg, iv measured for 0.083 to 12 hrs by LC-MS/MS analysis; assay type: ADME, organism-based; settings: in vivo, time 0.083-12 hrs
[5] = VRT (0 to t) in male Sprague-Dawley rat at 20 mg/kg, po measured for 0.083 to 12 hrs by LC-MS/MS analysis; assay type: ADME, organism-based; settings: in vivo, time 0.083-12 hrs

Vz [2]: 2785.62 L/kg | Clast [3]: 0.27 ng/mL | AUMC [4]: 238.68 hr.hr.ug/L | VRT(t) [5]: 6.38 h²
SMILES: CCCNNC(=O)CCCCCCNC(=O)c1cnc(-c2ccc(NC(=O)OC(C)(C)C)cc2)s1
Activity (4T1): Active | Activity [1]: Non-toxic

From ChEMBL document CHEMBL6182898, “Design, synthesis and bioevaluation of novel hydrazide derivatives as enhancers of immunotherapy and DNA-damage response in antitumor therapy” (Eur J Med Chem, 2025)
